Literature values, collected in patent US9968621B2, “Parenteral compositions of celecoxib” (Dr. Reddy's Laboratories Ltd., priority 2014, dated 2018).

Settings: after an oral dose

Time of peak plasma levels: approximately 3 hrs
Structure (SMILES): Cc1ccc(-c2cc(C(F)(F)F)nn2-c2ccc(S(N)(=O)=O)cc2)cc1 [Celecoxib, 4-[5-(4-methylphenyl)-3-(trifluoromethyl)-1H-pyrazol-1-yl] benzenesulfonamide]
